Source: US20230024438A1, “INHIBITORS OF HIF-2ALPHA” (ARCUS BIOSCIENCES, INC., priority 2019, published 2023)

Columns and labels:
HIF-2α = target: T1, HIF-2α (Homo sapiens, UniProt Q99814); assay: HIF-2α Luciferase Reporter Assay; assay type: cell-based; conditions: HIF-Luc-786-0 cells, 20 hours incubation, luciferase activity; read-out: HIF-2α Luciferase Assay
T1 construct: endogenous in cells; host or cells: 786-O cells (ATCC CRL-1932) stably carrying the Cignal Lenti HIF Luc Reporter
Procedure: Stable cell lines were generated by transducing 786-O cells (ATCC, CRL-1932) with Cignal Lenti HIF Luc Reporter lentivirus (CLS-007L, Qiagen) according to the manufacturer's guidelines. In brief, 0.3×10^6 786-0 cells were transduced with lentivirus at a Multiplicity of Infection (MOI) of 25 for 24 hours. After transduction, cells were replenished with fresh RPMI 1640 Medium (Cat. No. 11875085, Thermo Fisher,) supplemented with 10% FBS (Cat. No. A3160502, Gibco), 2 mM GlutaMax (Cat. No. 35050-061, Invitrogen) and 100 units of penicillin and 100 μg of streptomycin/mL (Cat. No 15070063, Thermo Fisher) for another 24 hours. Antibiotic selection was performed in cell media containing 4 μg/mL of Puromycin. After 7 days of antibiotic selection, stable pools of surviving cells were expanded and used in a luciferase reporter assay.
On day one, 20 uL of HIF-Luc-786-0 cells in OptiMem (Cat. No. 31985088, Thermo Fisher) were seeded into each well of a 384 well white opaque plate (Corning 3570) and incubated at 37° C. and 5% CO2. Twenty microliters of 2× test compounds in OptiMem were added to cells after 4 hours of incubation. Final assay conditions comprised 20,000 cells per well in 1% DMSO with test compound concentrations ranging from 50 uM to 0 uM. After 20 hours incubation at 37° C. and 5% CO2, luciferase activity was determined using ONE-Glo Luciferase Assay Reagent (E6110, Promega) following the manufacture's recommended procedure. Briefly, 40 uL of ONE-Glo luciferase reagents were added to each well and luciferase signals were measured using an Envision 2102 Multilabel Reader. Percentage maximum activity in each test well was calculated based on DMSO (maximum activity) and no cell control wells (baseline activity). The IC50 values of the test compounds were determined from compound dose response curves fitted using a standard four parameter fit equation.

[1] = target: T2, Histidine tagged HIF-2α protein containing PAS-B domain (240-350) (Homo sapiens, UniProt Q99814); assay: HIF-2α Scintillation Proximity Assay (SPA); assay type: binding; conditions: 50 nM HIF-2α protein, 25 nM radiolabeled tracer; read-out: HIF-2α Scintillation Proximity Assay
T2 construct: Histidine tagged HIF-2α protein containing PAS-B domain (240-350) was prepared and purified in house; made in house
T2 sequence (Q99814 240-350): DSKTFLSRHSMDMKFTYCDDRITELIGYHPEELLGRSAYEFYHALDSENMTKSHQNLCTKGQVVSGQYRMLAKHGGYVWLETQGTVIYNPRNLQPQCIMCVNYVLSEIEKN
Procedure: Tritium labeled compound N-(3-chlorophenyl)-4-nitro-2,1,3-benzoxadiazol-5-amine was obtained from American Radiolabeled Chemicals Inc. and copper chelate PVT SPA beads were from PerkinElmer (Cat #RPNQ0095). Histidine tagged HIF-2α protein containing PAS-B domain (240-350) was prepared and purified in house.
Compounds solubilized in DMSO were dispensed into a white 384-well polystyrene non-binding flat clear bottom plate (Greiner Bio-One, Cat #781903) using an HP D300 dispenser. Ten microliters of HIS-tagged HIF-2α protein in buffer (25 mM Tris-HCl, pH 7.4, 150 mM NaCl, 0.15% BSA and 0.001% Tween 20) was added to the compound wells and allowed to incubate for 1 hour at room temperature. Ten microliters of SPA bead mix were added to the wells and incubated for an additional 45 minutes, followed by 10 ul of ^3H-tracer solution. Final assay conditions comprised 50 nM HIF-2α protein, 25 nM radiolabeled tracer and 3 ug beads per well with compounds in 2% DMSO. The plate was read using a MicroBeta Microplate Counter (PerkinElmer) for luminescence detection. The IC50 values of the test compounds were determined from compound dose response curves fitted using a standard four parameter fit equation and are reported in Table 1.

T1 sequence (Q99814 whole entry): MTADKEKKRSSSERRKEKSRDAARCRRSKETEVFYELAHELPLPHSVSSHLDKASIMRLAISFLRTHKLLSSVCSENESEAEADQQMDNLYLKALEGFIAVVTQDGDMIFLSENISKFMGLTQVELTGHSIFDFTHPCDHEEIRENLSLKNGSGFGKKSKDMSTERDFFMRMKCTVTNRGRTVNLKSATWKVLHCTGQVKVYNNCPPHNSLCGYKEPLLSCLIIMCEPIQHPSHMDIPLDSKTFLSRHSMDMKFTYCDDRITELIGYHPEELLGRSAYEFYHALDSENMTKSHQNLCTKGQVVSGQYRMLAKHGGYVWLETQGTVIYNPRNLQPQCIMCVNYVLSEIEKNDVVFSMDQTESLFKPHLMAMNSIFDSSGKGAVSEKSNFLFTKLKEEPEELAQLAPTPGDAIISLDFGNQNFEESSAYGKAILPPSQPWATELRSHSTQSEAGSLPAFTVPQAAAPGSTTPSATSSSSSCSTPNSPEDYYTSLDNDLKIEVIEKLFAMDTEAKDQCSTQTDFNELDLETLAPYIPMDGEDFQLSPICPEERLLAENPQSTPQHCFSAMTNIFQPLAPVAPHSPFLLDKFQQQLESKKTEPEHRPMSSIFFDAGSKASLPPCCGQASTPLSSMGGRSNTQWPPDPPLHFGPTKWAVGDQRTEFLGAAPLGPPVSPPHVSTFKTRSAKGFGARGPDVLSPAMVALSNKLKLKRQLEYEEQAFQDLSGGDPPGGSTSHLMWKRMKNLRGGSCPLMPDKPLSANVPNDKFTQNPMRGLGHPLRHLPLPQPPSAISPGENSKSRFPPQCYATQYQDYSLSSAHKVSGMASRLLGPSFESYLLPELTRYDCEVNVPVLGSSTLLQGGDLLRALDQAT

| IC50 (HIF-2α) [µM] | IC50 [1] [µM] | Structure (SMILES) |
| --- | --- | --- |
| 1 to 10 | > 10 | CS(=O)(=O)c1ccc(Oc2cc(F)cc(C#N)c2)c2c(CO)n[nH]c12 [Example 11, 3-Fluoro-5-{[3-(hydroxymethyl)-7-methanesulfonyl-1H-indazol-4-yl]oxy}benzonitrile] |
| > 10 | 1 to 10 | O=S(=O)(c1ccc(Nc2cc(F)cc(Cl)c2)c2cn[nH]c12)C(F)(F)F [Example 47, (3-Chloro-5-fluorophenyl)[7-(trifluoromethylsulfonyl)-1H-indazol-4-yl]amine] |
| > 10 | > 10 | COc1ccc(Oc2ccc(S(=O)(=O)C(F)(F)F)c3[nH]ncc23)cc1 [Example 20, 4-(p-Methoxyphenoxy)-7-(trifluoromethylsulfonyl)-1H-indazole] |
| 1 to 10 | > 10 | N#Cc1cc(F)cc(Oc2ccc(S(=O)(=O)C(F)F)c3[nH]nc(I)c23)c1 [Example 13, 5-[7-(Difluoromethylsulfonyl)-3-iodo-1H-indazol-4-yloxy]-3-fluorobenzonitrile] |
| 1 to 10 | 1 to 10 | N#Cc1cc(F)cc(Nc2ccc(S(=O)(=O)C(F)(F)F)c3[nH]ncc23)c1 [Example 45, 3-Fluoro-5-[(7-trifluoromethanesulfonyl-1H-indazol-4-yl)amino] benzonitrile] |
| 1 to 10 | > 10 | CS(=O)(=O)c1ccc(Oc2cc(F)cc(Cl)c2)c2c(Cl)n[nH]c12 [Example 9, 3-Chloro-4-(3-chloro-5-fluorophenoxy)-7-methanesulfonyl-1H-indazole] |
| > 10 | > 10 | O=S(=O)(c1ccc(NCc2cc(Cl)cc(Cl)c2)c2cn[nH]c12)C(F)(F)F [Example 56, N-[(3,5-dichlorophenyl)methyl]-7-(trifluoromethylsulfonyl)-1H-indazol-4-amine] |
| > 10 | > 10 | O=S(=O)(c1ccc(NCc2ccccc2)c2cn[nH]c12)C(F)(F)F [Example 51, N-benzyl-7-(trifluoromethylsulfonyl)-1H-indazol-4-amine] |
